Assay results as given in patent publication US20250230193A1, “CYCLIC COMPOUND HAVING SELECTIVE KRAS INHIBITORY EFFECT ON HRAS AND NRAS” (CHUGAI SEIYAKU KABUSHIKI KAISHA, priority 2022, published 2025).
Where a SMILES comes first, the peptide text is derived from it. Bridges are numbered along the chain shown (N, C = ends). [ ]: non-standard residue; d: D form. The star is where a group is joined. hPhe(3-Cl-4-CF3) = N[C@@H](CCc1ccc(C(F)(F)F)c(Cl)c1)C(=O)O; NPrPhe(4-CF3) = CCCN[C@@H](Cc1ccc(C(F)(F)F)cc1)C(=O)O; NMeGly(cPent) = CN[C@H](C(=O)O)C1CCCC1; NMeD = CN[C@@H](CC(=O)O)C(=O)O; NMeL = CN[C@@H](CC(C)C)C(=O)O; Morpholide = C1CN(*)CCO1; Ac5c = NC1(C(=O)O)CCCC1; NEtG = CCNCC(=O)O; Sar = CNCC(=O)O

Tests used:
[1] = target: GDP-bound HRAS wild-type protein (Homo sapiens, UniProt P01112); assay: Binding to HRAS by surface plasmon resonance (SPR), Single Cycle Kinetics; conditions: for HRAS/KRAS (ratio of KD value with respect to HRAS to KD value with respect to KRAS): GDP-bound HRAS wild-type vs GDP-bound KRAS wild-type
[2] = target: GDP-bound NRAS wild-type protein (Homo sapiens, UniProt P01111); assay: Binding to NRAS by surface plasmon resonance (SPR), Single Cycle Kinetics; conditions: for NRAS/KRAS (ratio of KD value with respect to NRAS to KD value with respect to KRAS): GDP-bound NRAS wild-type vs GDP-bound KRAS wild-type
[3] = SPR, GDP-bound wild-type proteins

GDP-bound HRAS wild-type protein, sequence (P01112 whole entry): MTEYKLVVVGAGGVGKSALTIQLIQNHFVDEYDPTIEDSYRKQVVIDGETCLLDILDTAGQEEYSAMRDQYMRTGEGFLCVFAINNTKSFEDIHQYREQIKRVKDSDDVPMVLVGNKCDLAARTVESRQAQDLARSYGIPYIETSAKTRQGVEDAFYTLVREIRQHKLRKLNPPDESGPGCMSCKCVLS
GDP-bound NRAS wild-type protein, sequence (P01111 whole entry): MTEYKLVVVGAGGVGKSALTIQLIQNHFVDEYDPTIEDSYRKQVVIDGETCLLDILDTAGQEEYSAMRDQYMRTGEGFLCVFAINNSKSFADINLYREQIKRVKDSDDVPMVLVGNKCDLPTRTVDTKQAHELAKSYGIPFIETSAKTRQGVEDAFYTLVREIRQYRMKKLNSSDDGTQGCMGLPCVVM

CC[C@H](C)[C@@H]1NC(=O)[C@H](CC(C)C)N(C)C(=O)C[C@@H](C(=O)N(C)C)N(C)C(=O)[C@H](C2CCCC2)N(C)C(=O)C2(CCC2)NC(=O)[C@@H]2CCCN2C(=O)[C@H](CCc2cc(F)c(C(F)(F)F)c(F)c2)NC(=O)CN(C)C(=O)[C@H](Cc2ccc(C(F)(F)F)cc2)N2CCCC[C@@H](C2=O)N(C)C(=O)CN(C)C1=O [PP0574]
HRAS/KRAS (ratio of KD value with respect to GDP-bound HRAS wild-type protein to KD value with respect to KRAS) ([1]; SPR): B (a compound having 3 or more and less than 10 is denoted as B)
NRAS/KRAS (ratio of KD value with respect to GDP-bound NRAS wild-type protein to KD value with respect to KRAS) ([2]; SPR): C (A compound having a KD ratio of 0.1 or more and less than 3 is denoted as C)

CCCN(C)C(=O)[C@@H]1CC(=O)N(C)[C@@H](C2CCC2)C(=O)N[C@@H]([C@@H](C)CC)C(=O)N(C)CC(=O)N(C)[C@H]2C/C=C\CCN(C2=O)[C@@H](Cc2ccc(C(F)(F)F)cc2)C(=O)N(C)CC(=O)N[C@@H](CCc2ccc(C(F)(F)F)c(OC)c2)C(=O)N2C[C@@H](C)C[C@H]2C(=O)NC2(CCC2)C(=O)N(C)[C@@H](C2CCCC2)C(=O)N1C [PP2072]
HRAS/KRAS (ratio of KD value with respect to HRAS to KD value with respect to KRAS) ([1]; SPR): A (a compound having 10 or more and less than 20 is denoted as A)
NRAS/KRAS (ratio of KD value with respect to NRAS to KD value with respect to KRAS) ([2]; SPR): A (a compound having 10 or more and less than 20 is denoted as A)

CCCN1C(=O)CN(C)C(=O)CN(CC)C(=O)[C@H]([C@@H](C)CC)NC(=O)[C@H](CC(C)C)N(C)C(=O)C[C@@H](C(=O)N2CCOCC2)N(C)C(=O)[C@H](C2CCCC2)N(C)C(=O)C2(CCCC2)NC(=O)CN(C)C(=O)[C@H](CCc2ccc(C(F)(F)F)c(Cl)c2)NC(=O)CN(C)C(=O)[C@@H]1Cc1ccc(C(F)(F)F)cc1 [PP0300] ([NMeL]I[NEtG][Sar][NPrPhe(4-CF3)][Sar][hPhe(3-Cl-4-CF3)][Sar][Ac5c][NMeGly(cPent)][NMeD]-Morpholide; lactam N-11)
HRAS/KRAS (ratio of KD for GDP-bound HRAS wild-type to KD for KRAS) ([1]; SPR): C (A compound having a KD ratio of 0.1 or more and less than 3 is denoted as C)
NRAS/KRAS (ratio of KD for GDP-bound NRAS wild-type to KD for KRAS) ([2]; SPR): B (a compound having 3 or more and less than 10 is denoted as B)

CC[C@H](C)[C@@H]1NC(=O)[C@@H]2CCCCc3ccc(cc3)C[C@@H](C(=O)N(C)CC(=O)N[C@@H](CCc3ccc(C(F)(F)F)c(OC)c3)C(=O)N3CC4(CC4)C[C@H]3C(=O)NC3(CC(C)(C)C3)C(=O)N(C)[C@@H](C3CCCC3)C(=O)N(C)[C@H](C(=O)N(C)CC)CC(=O)N2C)N2CC/C=C\C[C@@H](C2=O)N(C)C(=O)CN(C)C1=O [PP3081]
HRAS/KRAS (ratio of KD value with respect to GDP-bound HRAS wild-type protein to KD value with respect to KRAS) [1, 3]: B (a compound having 3 or more and less than 10 is denoted as B)
NRAS/KRAS (ratio of KD value with respect to GDP-bound NRAS wild-type protein to KD value with respect to KRAS) [2, 3]: A (a compound having 10 or more and less than 20 is denoted as A)

CCCN1C(=O)CN(C)C(=O)CN(CC)C(=O)[C@H]([C@@H](C)CC)NC(=O)[C@H](CC(C)C)N(C)C(=O)C[C@@H](C(=O)N(C)C)NC(=O)[C@H](C2CCCC2)N(C)C(=O)C2(CCCC2)NC(=O)[C@@H]2CCCN2C(=O)[C@H](CCc2ccc(C(F)(F)F)c(Cl)c2)NC(=O)CN(C)C(=O)[C@@H]1Cc1ccc(C(F)(F)F)cc1 [PP0367] ([NMeL]I[NEtG][Sar][NPrPhe(4-CF3)][Sar][hPhe(3-Cl-4-CF3)]P[Ac5c][NMeGly(cPent)]D-NMe2; lactam N-11)
HRAS/KRAS (ratio of KD for GDP-bound HRAS wild-type to KD for KRAS) ([1]; SPR): B (a compound having 3 or more and less than 10 is denoted as B)
NRAS/KRAS (ratio of KD for GDP-bound NRAS wild-type to KD for KRAS) ([2]; SPR): B (a compound having 3 or more and less than 10 is denoted as B)

CC[C@H](C)[C@@H]1NC(=O)[C@H](CC(C)C)N(C)C(=O)C[C@@H](C(=O)N2CCOCC2)N(C)C(=O)[C@H](C2CCCC2)N(C)C(=O)C2(CCCC2)NC(=O)[C@@H]2CCCN2C(=O)[C@H](CCc2ccc(C(F)(F)F)c(Cl)c2)NC(=O)CN(C)C(=O)[C@H](Cc2ccccc2)N2CC=CC[C@@H](C2=O)N(C)C(=O)CN(C)C1=O [PP0528]
HRAS/KRAS (ratio of KD value with respect to GDP-bound HRAS wild-type protein to KD value with respect to KRAS) ([1]; SPR): C (A compound having a KD ratio of 0.1 or more and less than 3 is denoted as C)
NRAS/KRAS (ratio of KD value with respect to GDP-bound NRAS wild-type protein to KD value with respect to KRAS) ([2]; SPR): C (A compound having a KD ratio of 0.1 or more and less than 3 is denoted as C)

CCO[C@@H]1C[C@H]2C(=O)NC3(CCC3)C(=O)N(C)[C@@H](C3CCCC3)C(=O)N(CC)[C@H](C(=O)N(C)C)CC(=O)N(C)[C@@H](CC)C(=O)N[C@@H]([C@@H](C)CC)C(=O)N(C)CC(=O)N(C)[C@H]3C/C=C\CCN(C3=O)[C@@H](Cc3ccc(C(F)(F)F)cc3)C(=O)N(C)CC(=O)N[C@@H](CCc3cc(F)c(C(F)(F)F)c(F)c3)C(=O)N2C1 [PP0980]
HRAS/KRAS (ratio of KD value with respect to HRAS to KD value with respect to KRAS) ([1]; KD ratio, SPR): B (a compound having 3 or more and less than 10 is denoted as B)
NRAS/KRAS (ratio of KD value with respect to NRAS to KD value with respect to KRAS) ([2]; KD ratio, SPR): A (a compound having 10 or more and less than 20 is denoted as A)

CCO[C@@H]1C[C@H]2C(=O)NC3(CCC3)C(=O)N(C)[C@@H](C(CC)CC)C(=O)N(C)[C@H](C(=O)N3CCCCC3)CC(=O)N(C)[C@H]3CCC/C=C/c4ccc(cc4)C[C@@H](C(=O)N(C)CC(=O)N[C@@H](CCc4cc(F)c(C(F)(F)F)c(F)c4)C(=O)N2C1)N1CC/C=C\C[C@@H](C1=O)N(C)C(=O)CN(C1CC1)C(=O)[C@H]([C@@H](C)CC)NC3=O [PP2956]
HRAS/KRAS (ratio of KD value with respect to GDP-bound HRAS wild-type protein to KD value with respect to KRAS) ([1]; class symbols): A (a compound having 10 or more and less than 20 is denoted as A)
NRAS/KRAS (ratio of KD value with respect to GDP-bound NRAS wild-type protein to KD value with respect to KRAS) ([2]; class symbols): AA (a compound having 20 or more is denoted as AA)
